Calls of active or inactive are those of the source.
How the values were obtained:
H9c2 = test: cells; type: functional, cell-based; conditions: Rattus norvegicus, H9c2, Myocardium;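 note: confirmatory concentration-response retest of ultra-high-throughput screening hits for modulation of myocardial damage; cell death induced by hydrogen peroxide oxidative stress; compound pretreatment for 60 min then peroxide exposure for 2 h; potency is for protecting the cells against peroxide damage rather than for killing them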
Melanocortin receptor 4 = Melanocortin receptor 4 (Homo sapiens, UniProt P32245); type: functional, cell-based;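 note: Cell-based assay with luminescence read-out, confirmatory dose-response testing for agonist activity of biased ligands at MC4R; human U2OS cells with tagged receptor and beta-arrestin; potency of agonists that increase receptor coupling to beta-arrestin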
BJ [1] = test: BJ-TERT fibroblast viability loss – cell-based, RAS-independent, luminescence, dose response (AID 1933); type: functional; conditions: Homo sapiens
[2] = toxicity toward HepG2 liver cells – cell-based, plate reader, cherry-pick, antagonist series, cytotoxicity control, dose response (AID 743416); type: functional
Jurkat = test: blockers of NF-kB activation in T cells – Jurkat, luciferase reporter, luminescence, B- and T-cell, dose response (AID 489004); type: functional, cell-based; conditions: Homo sapiens;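 note: NF-kB luciferase reporter Jurkat cells stimulated with PMA plus ionomycin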
[3] = blockade of melanocortin 4 receptor signaling – cell-based, plate reader, cherry pick, counter-screen for LGR2 antagonist project, dose response (AID 743444); type: functional;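 note: transfected HEK 293 cells stimulated with alpha-MSH peptide; potency of inhibitors of the alpha-MSH evoked signal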
BJ [4] = test: cells; type: functional, cell-based; conditions: Homo sapiens
[5] = reduction of Shn3 3'UTR-driven luciferase in osteoblasts – cell-based, Clone20 osteoblasts, firefly luciferase, cherry-picked, dose response (AID 624132); type: functional;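 note: firefly luciferase luminescence from reporter carrying the Shn3 3'UTR in osteoblasts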
[6] = HEK-293T viability loss, compound-treated – cell-based, uHTS hits, cytotoxicity control for B/T-cell NF-kB inhibitor project, dose response (AID 489019); type: functional;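 note: IC50 reflects cytotoxicity as loss of cell viability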
[7] = HIV-1 AD8 envelope cell-cell fusion blockers – cherry-pick, dose response (AID 652062); type: functional, cell-based;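 note: luciferase signal from cell-cell fusion driven by HIV-1 clade B AD8 Env; potency is for inhibitors of fusion seen as a drop in luminescence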
BJ [8] = test: growth inhibition of engineered Ras-driven BJ cells – cell-based, alamar blue fluorescence, cherrypicked samples, dose response (AID 2631); type: functional; conditions: Homo sapiens;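 note: confirmatory dose-response assay in RAS-dependent BJ fibroblasts engineered with TERT, LT and ST, with cytotoxicity read by fluorescence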
[9] = blockers of bursicon-stimulated LGR2 cAMP reporter – cell-based, HEK293, CRE-luciferase reporter, cherry pick, set 2, dose response (AID 743343); type: functional;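 note: transfected cells were stimulated with diluted bursicon conditioned medium after compound addition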
[10] = A549 cell cytotoxicity, dose response, cytotoxicity control, plate reader, cherry-pick, antagonist series (AID 743412); type: functional, cell-based
[11] = viability loss in HEK293 cells – cell-based, plate reader, cherry-picked samples, cytotoxicity control, dose response (AID 743446); type: functional
[12] = viability loss in CEM21 cells – cell-based, CellTiter-Glo luminescence, cherry-picked, cytotoxicity control for viral fusion inhibitor project, dose response (AID 652042); type: functional;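 note: potency for signal decrease meaning cytotoxicity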
[13] = blockers of HIV-1 envelope-mediated cell-cell fusion – cherry-pick, dose response (AID 652057); type: functional, cell-based
[14] = DRD fibroblast viability loss – cell-based, non-viral oncogenic, luminescence, dose response (AID 1934); type: functional; conditions: Homo sapiens
[15] = biological target: Luciferin 4-monooxygenase (Photinus pyralis, UniProt P08659); test: inhibition of purified Photinus pyralis luciferase – biochemical, luminescence, dose response (AID 1891)
[16] = loss of viability in HepG2 cells – cell-based, CellTiter-Glo, cherry-picked, cytotoxicity control for Shn3 inhibitor project, dose response (AID 624134); type: functional
BJ [17] = test: BJ-TERT-LT-ST fibroblast viability loss – cell-based, RAS-independent, luminescence, dose response (AID 1935); type: functional; conditions: Homo sapiens;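 note: BJ fibroblasts immortalized with TERT plus LT and ST oncogenes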
[18] = off-target signal loss in HeLa-CEM21 co-culture – HeLa F-luc CTL cells, cherry-picked, counter-screen for HIV-1 Env fusion inhibitor project, dose response (AID 652040); type: functional, cell-based;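 note: potency for signal decrease marking cytotoxic or nonspecific inhibition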
[19] = blockers of HIV-1 ZM109 envelope-driven cell-cell fusion – HeLa effector, CEM target cells, luciferase, cherry-pick, dose response (AID 652058); type: functional, cell-based;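 note: luciferase signal from HIV-1 Env mediated cell-cell fusion of effector and target cells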
[20] = Luminescence Cell-Based Dose Confirmation HTS to Identify Inhibitors of Platelet Dense Granule Release. [Related pubchem assays: 1663 (Primary HTS), 1678 (Summary of Project)]; type: functional
[21] = fluconazole-exposed Candida albicans growth modulators – fluorescence, retest, confirmation (AID 2467); type: functional, cell-based
[22] = NIH-3T3 fibroblast cytotoxicity, dose response, cytotoxicity control, cell-based, fluorescence, Alamar Blue, secondary assay (AID 2327); type: functional;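 note: NIH-3T3 mouse fibroblasts cultured with fluconazole at 8 µg/mL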
[23] = non-specific 3'UTR reporter inhibition in Clone20-Shn3RL – cell-based, Renilla luciferase, cherry-picked, counter-screen for Shn3 inhibitor project, dose response (AID 624133); type: functional
[24] = biological target: T1, Microphthalmia-associated transcription factor (Homo sapiens, UniProt O75030); test: reducers of TRPM1 reporter luminescence, concentration series – cell-based, SK-MEL-5, cherry-picked, set 3, MITF inhibitor project, dose response (AID 493073); type: functional;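 note: SK-MEL-5 melanoma cells with luciferase driven by the MITF target TRPM1 promoter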
T1 sequence (O75030 whole entry): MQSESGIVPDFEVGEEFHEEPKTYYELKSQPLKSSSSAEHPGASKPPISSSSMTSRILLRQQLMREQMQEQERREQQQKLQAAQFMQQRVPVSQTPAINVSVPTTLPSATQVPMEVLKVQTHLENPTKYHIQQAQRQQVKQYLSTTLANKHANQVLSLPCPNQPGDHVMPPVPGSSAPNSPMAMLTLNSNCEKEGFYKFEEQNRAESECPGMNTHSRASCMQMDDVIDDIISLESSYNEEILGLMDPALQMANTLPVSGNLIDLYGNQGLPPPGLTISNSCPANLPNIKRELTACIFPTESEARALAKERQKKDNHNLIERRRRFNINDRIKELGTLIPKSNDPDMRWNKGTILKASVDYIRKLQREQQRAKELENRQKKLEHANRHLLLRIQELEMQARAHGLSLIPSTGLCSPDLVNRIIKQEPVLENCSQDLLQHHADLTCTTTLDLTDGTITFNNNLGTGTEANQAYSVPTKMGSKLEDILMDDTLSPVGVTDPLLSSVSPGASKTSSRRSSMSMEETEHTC

[25] = HEK-293T viability loss after treatment – luminescence, T-cell screen hits, cytotoxicity control for TCR NF-kB inhibitor project, dose response (AID 489026); type: functional, cell-based;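 note: cells exposed to compound about 14 hours before the viability readout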
Protein RecA = biological target: T2, Protein RecA (Mycobacterium tuberculosis, UniProt P9WHJ3); test: Fluorescence Cell-Free Homogeneous Dose Retest to Identify Inhibitors of RecA-Intein Splicing Activity. [Related pubchem assays (depositor defined):AID2097, AID2223, AID489010, AID492950]; type: functional
T2 sequence (P9WHJ3 whole entry): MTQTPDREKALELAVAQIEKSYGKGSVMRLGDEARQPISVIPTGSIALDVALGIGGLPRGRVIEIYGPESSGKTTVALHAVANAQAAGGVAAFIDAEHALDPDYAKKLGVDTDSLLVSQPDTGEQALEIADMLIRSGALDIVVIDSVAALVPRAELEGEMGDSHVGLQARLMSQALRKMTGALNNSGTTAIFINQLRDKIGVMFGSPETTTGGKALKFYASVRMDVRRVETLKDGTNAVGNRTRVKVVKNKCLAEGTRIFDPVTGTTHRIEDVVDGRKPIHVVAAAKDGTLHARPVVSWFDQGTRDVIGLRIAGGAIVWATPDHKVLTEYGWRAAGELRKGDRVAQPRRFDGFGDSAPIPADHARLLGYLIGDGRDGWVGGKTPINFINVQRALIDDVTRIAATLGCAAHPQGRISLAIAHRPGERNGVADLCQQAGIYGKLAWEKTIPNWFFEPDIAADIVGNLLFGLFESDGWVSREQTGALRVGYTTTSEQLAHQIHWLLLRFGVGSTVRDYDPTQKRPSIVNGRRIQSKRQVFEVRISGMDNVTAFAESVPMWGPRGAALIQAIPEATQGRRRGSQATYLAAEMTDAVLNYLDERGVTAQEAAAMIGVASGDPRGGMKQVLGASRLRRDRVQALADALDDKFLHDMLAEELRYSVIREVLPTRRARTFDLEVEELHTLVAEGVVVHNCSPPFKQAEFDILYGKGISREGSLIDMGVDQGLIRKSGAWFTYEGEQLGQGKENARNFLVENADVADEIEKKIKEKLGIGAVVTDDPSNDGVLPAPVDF

[26] = Luminescence Cell-Based Dose Retest to Confirm Inhibitors of Cancer Stem Cells. [Related pubchem assays (depositor defined):AID2717, AID2721]; type: functional; conditions: Homo sapiens
Vero [27] = test: cells; type: functional; conditions: Chlorocebus sabaeus
[28] = biological target: T3, Replicative DNA helicase DnaB (Mycobacterium tuberculosis, UniProt P9WMR3); test: DnaB intein splicing inhibitors, dose response, biochemical, cell-free fluorescence (AID 449749); type: functional
T3 sequence (P9WMR3 whole entry): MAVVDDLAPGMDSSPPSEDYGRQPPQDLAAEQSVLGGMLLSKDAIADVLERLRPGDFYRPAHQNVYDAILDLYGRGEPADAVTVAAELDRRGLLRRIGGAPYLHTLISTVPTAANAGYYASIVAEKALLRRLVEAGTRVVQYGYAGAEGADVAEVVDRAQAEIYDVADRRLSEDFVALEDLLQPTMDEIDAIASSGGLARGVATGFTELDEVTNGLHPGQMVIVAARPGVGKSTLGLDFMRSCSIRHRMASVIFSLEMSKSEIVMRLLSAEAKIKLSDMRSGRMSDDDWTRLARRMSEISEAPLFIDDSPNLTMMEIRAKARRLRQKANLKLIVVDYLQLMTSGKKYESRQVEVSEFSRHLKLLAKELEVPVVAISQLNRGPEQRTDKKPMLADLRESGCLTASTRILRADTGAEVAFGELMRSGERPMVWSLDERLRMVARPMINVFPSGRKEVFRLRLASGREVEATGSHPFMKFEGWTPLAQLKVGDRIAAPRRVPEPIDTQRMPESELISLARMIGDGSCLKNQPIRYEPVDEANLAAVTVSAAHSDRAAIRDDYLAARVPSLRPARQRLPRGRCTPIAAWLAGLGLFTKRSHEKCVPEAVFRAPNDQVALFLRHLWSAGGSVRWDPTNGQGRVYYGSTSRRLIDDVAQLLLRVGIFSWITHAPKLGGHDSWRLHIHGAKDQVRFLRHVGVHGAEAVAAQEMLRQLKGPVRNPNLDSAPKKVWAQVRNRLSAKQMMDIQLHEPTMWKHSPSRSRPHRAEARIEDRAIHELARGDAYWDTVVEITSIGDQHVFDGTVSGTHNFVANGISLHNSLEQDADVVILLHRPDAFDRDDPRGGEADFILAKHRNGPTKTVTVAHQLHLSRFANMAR

Vero [29] = test: cells; type: functional, cell-based; conditions: Chlorocebus sabaeus
[30] = biological target: T4, Mitochondrial peptide methionine sulfoxide reductase (Bos taurus, UniProt P54149); test: Absorbance-based biochemical high throughput dose response assay for activators of Methionine sulfoxide reductase A (MsrA).; type: functional
T4 sequence (P54149 whole entry): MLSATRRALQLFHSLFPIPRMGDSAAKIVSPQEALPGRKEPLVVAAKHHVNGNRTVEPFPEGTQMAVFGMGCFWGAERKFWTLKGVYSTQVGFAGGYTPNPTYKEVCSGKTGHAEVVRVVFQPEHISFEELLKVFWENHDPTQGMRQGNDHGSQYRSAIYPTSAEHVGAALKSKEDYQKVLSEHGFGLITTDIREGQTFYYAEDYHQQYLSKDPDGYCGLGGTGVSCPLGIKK

Sequence of Melanocortin receptor 4 (P32245 whole entry): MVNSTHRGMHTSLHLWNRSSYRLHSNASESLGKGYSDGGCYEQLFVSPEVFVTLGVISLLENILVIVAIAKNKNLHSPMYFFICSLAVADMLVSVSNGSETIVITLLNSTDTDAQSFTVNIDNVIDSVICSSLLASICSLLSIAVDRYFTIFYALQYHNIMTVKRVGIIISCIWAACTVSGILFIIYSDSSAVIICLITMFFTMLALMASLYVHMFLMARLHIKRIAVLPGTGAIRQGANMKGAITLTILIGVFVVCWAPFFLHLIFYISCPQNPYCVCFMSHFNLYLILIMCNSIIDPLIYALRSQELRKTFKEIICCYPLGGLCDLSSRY
Sequence of Luciferin 4-monooxygenase (P08659 whole entry): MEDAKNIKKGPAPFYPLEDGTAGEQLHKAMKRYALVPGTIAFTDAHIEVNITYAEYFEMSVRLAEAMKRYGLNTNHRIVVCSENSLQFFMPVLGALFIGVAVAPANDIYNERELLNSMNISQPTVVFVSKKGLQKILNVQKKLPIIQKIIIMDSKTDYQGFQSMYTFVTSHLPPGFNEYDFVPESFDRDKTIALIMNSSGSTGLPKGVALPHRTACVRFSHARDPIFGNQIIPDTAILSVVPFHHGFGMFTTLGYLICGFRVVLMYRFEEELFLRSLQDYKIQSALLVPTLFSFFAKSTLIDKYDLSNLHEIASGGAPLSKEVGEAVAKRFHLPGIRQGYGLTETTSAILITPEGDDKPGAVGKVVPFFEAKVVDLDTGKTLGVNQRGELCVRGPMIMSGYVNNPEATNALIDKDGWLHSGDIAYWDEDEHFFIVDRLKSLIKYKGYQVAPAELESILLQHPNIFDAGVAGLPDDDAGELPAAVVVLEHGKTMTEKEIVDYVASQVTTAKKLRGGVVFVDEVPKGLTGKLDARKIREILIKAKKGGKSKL

COc1cccc(-c2cnc3c(NC=O)cc(-c4cccc(C(=O)N(C)C)c4)cn23)c1
IC50 (H9c2): > 79 µM (inactive) | EC50 (Melanocortin receptor 4): > 89.2 µM (inactive)

COc1ccc(-c2cc3nc(C)n(N)c(=O)c3s2)cc1
EC50 (BJ [1]): 3.64 µM (inconclusive) | AC50 [2]: 3.72 µM (active) | IC50 (Jurkat): 0.47 µM (active) | AC50 [3]: 0.289 µM (active) | EC50 (BJ [4]): 2.27 µM (active) | AC50 [5]: 1.13 µM (active) | IC50 [6]: > 80 µM (inactive) | AC50 [7]: 1.51 µM (active) | EC50 (BJ [8]): > 133 µM (inactive) | AC50 [9]: 0.26 µM (active) | AC50 [10]: 3.1 µM (active) | AC50 [11]: 3.01 µM (active) | AC50 [12]: 4.71 µM (active) | AC50 [13]: 0.95 µM (active) | EC50 [14]: 2.15 µM (active) | EC50 [15]: 0.263 µM (active) | AC50 [16]: 4.71 µM (active) | EC50 (BJ [17]): 10.6 µM (active) | AC50 [18]: 2.33 µM (active) | AC50 [19]: 8.99 µM (active) | EC50 [20]: 0.443 µM (active)

O=c1c2ccccc2nc(/C=C/c2ccc([N+](=O)[O-])o2)n1-c1ccc(O)cc1
EC50 (BJ [1]): 4.33 µM (active) | AC50 [2]: 4.17 µM (active) | EC50 [21]: 0.165 µM (active) | EC50 [22]: 3.91 µM (inconclusive) | EC50 (BJ [4]): 3.48 µM (inconclusive) | AC50 [23]: 4.9 µM (active) | AC50 [5]: 3.24 µM (active) | EC50 (BJ [8]): 7.06 µM (active) | AC50 [10]: 4.35 µM (active) | AC50 [11]: 4.16 µM (active) | AC50 [24]: 4.45 µM (active) | EC50 [14]: 2.97 µM (active) | AC50 [16]: 5.99 µM (active) | EC50 (BJ [17]): 3.08 µM (inconclusive) | IC50 [25]: > 80 µM (inactive)

COc1ccccc1-c1cc(NC=O)c2ncc(-c3ccc(F)cc3)n2c1
EC50 (Melanocortin receptor 4): > 9.91 µM (active)

NS(=O)(=O)c1ccc(NC(=O)c2cc(-c3cccs3)nc3ccccc23)cc1
EC50 (BJ [1]): 14.1 µM (active) | EC50 (BJ [4]): 83.1 µM (active) | EC50 (BJ [8]): > 133 µM (inactive) | EC50 [14]: 10.8 µM (active) | EC50 (BJ [17]): > 75 µM (inconclusive)

C=CCSC(=C(C#N)C#N)c1cc2c([nH]1)CCCC2
EC50 (Protein RecA): 6.29 µM (active) | AC50 [26]: 6.73 µM (active) | CC50 (Vero [27]): 10.5 µM (active) | AC50 [28]: > 380 µM (inactive) | IC50 (Vero [29]): > 25 µM (active)

Cc1nc2c(nc1C)C(=O)c1ccccc1C2=O
EC50 [30]: 95.6 µM (inactive)

Cc1cc(S)nc(S)n1
EC50 [30]: > 104 µM (inactive)

COc1cccc(-c2cnc3c(NC(C)=O)cc(-c4cc(F)ccc4OC)cn23)c1
EC50 (Melanocortin receptor 4): > 89.2 µM (inactive)

From ChEMBL document CHEMBL1201862, “PubChem BioAssay data set” (2004)
